From ChEMBL document CHEMBL3612010, “Deprotometalation-iodolysis and computed CH acidity of 1,2,3- and 1,2,4-triazoles. Application to the synthesis of resveratrol analogues” (Bioorg Med Chem, 2015)
Converted amounts (≈) assume the structure as drawn.

What was measured:
Enterococcus faecalis = experiment: Antibacterial activity against Enterococcus faecalis ATCC 29212 after 24 hrs by broth microdilution method; format: functional; details: ATCC 29212, 24 h
Escherichia coli = experiment: Antibacterial activity against Escherichia coli ATCC 25922 after 24 hrs by broth microdilution method; format: functional; details: ATCC 25922, 24 h
Staphylococcus aureus [1] = experiment: Antibacterial activity against Staphylococcus aureus ATCC 25923 after 24 hrs by broth microdilution method; format: functional; details: ATCC 25923, 24 h
Pseudomonas aeruginosa = experiment: Antibacterial activity against Pseudomonas aeruginosa […] after 24 hrs by broth microdilution method; format: functional
MDA-MB-231 [2] = experiment: Antiproliferative activity against human MDA-MB-231 cells assessed as cell survival at 100 uM after 24 hrs by MTT assay relative to control; format: functional; details: MDA-MB-231, 24 h, read-out: Survival
Staphylococcus aureus [3] = experiment: Antibacterial activity against Staphylococcus aureus ATCC 29213 after 24 hrs by broth microdilution method; format: functional; details: ATCC 29213, 24 h
MDA-MB-231 [4] = experiment: Antiproliferative activity human MDA-MB-231 cells assessed as cell survival after 48 hrs by MTT assay; format: functional, cell-based; details: MDA-MB-231, 48 h
MDA-MB-231 [5] = experiment: Antiproliferative activity against human MDA-MB-231 cells assessed as cell survival at 100 uM after 48 hrs by MTT assay relative to control; format: functional; details: MDA-MB-231, 48 h, read-out: Survival
MDA-MB-231 [6] = experiment: Antiproliferative activity against human MDA-MB-231 cells assessed as cell survival at 25 uM after 48 hrs by MTT assay relative to control; format: functional; details: MDA-MB-231, 48 h, read-out: Survival

SMILES	MIC (Enterococcus faecalis)	MIC (Escherichia coli)	MIC (Staphylococcus aureus [1])	MIC (Pseudomonas aeruginosa)	viability at 100 µM (MDA-MB-231 [2])	MIC (Staphylococcus aureus [3])	IC50 (MDA-MB-231 [4])	viability at 100 µM (MDA-MB-231 [5])	viability at 25 µM (MDA-MB-231 [6])
COc1ccc(-c2cnn(-c3ccccc3-c3ccc(OC)cc3)n2)cc1	256 µg/mL (≈ 716 µM)	256 µg/mL (≈ 716 µM)	256 µg/mL (≈ 716 µM)	256 µg/mL (≈ 716 µM)	75%	256 µg/mL (≈ 716 µM)	–	–	–
Oc1ccc(-c2cnn(-c3ccccc3-c3ccc(O)cc3)n2)cc1	128 µg/mL (≈ 389 µM)	128 µg/mL (≈ 389 µM)	128 µg/mL (≈ 389 µM)	64 µg/mL (≈ 194 µM)	54.5%	128 µg/mL (≈ 389 µM)	40 µM	11%	–
c1ccc(-c2cnn(-c3ccccc3)n2)cc1	128 µg/mL (≈ 578 µM)	128 µg/mL (≈ 578 µM)	256 µg/mL (≈ 1160 µM)	128 µg/mL (≈ 578 µM)	85.5%	> 256 µg/mL	–	–	–
CC1(C)S[C@@H]2[C@H](NC(=O)[C@H](C(=O)O)c3ccsc3)C(=O)N2[C@H]1C(=O)O [TICARCILLIN]	–	–	–	8 µg/mL (≈ 20.8 µM)	–	–	–	–	–
Cc1onc(-c2ccccc2)c1C(=O)N[C@@H]1C(=O)N2[C@@H]1SC(C)(C)[C@@H]2C(=O)O [OXACILLIN]	–	–	< 1 µg/mL	–	–	< 1 µg/mL	–	–	–
Clc1cccc(-c2cnn(-c3ccccc3-c3cccc(Cl)c3)n2)c1	256 µg/mL (≈ 699 µM)	128 µg/mL (≈ 349 µM)	128 µg/mL (≈ 349 µM)	128 µg/mL (≈ 349 µM)	40.5%	256 µg/mL (≈ 699 µM)	45.5 µM	11%	–
Nc1ccc(-c2cnn(-c3ccccc3)n2)cc1	128 µg/mL (≈ 542 µM)	128 µg/mL (≈ 542 µM)	256 µg/mL (≈ 1080 µM)	64 µg/mL (≈ 271 µM)	66%	256 µg/mL (≈ 1080 µM)	–	–	–
Oc1ccc(-c2cnn(-c3ccccc3)n2)cc1	64 µg/mL (≈ 270 µM)	128 µg/mL (≈ 539 µM)	128 µg/mL (≈ 539 µM)	128 µg/mL (≈ 539 µM)	102%	64 µg/mL (≈ 270 µM)	–	–	–
CC1(C)S[C@@H]2[C@H](NC(=O)[C@H](N)c3ccc(O)cc3)C(=O)N2[C@H]1C(=O)O [AMOXICILLIN]	–	4 µg/mL (≈ 10.9 µM)	–	–	–	–	–	–	–
CN[C@H](CC(C)C)C(=O)N[C@H]1C(=O)N[C@@H](CC(N)=O)C(=O)N[C@H]2C(=O)N[C@H]3C(=O)N[C@H](C(=O)N[C@H](C(=O)O)c4cc(O)cc(O)c4-c4cc3ccc4O)[C@H](O)c3ccc(c(Cl)c3)Oc3cc2cc(c3O[C@@H]2O[C@H](CO)[C@@H](O)[C@H](O)[C@H]2O[C@H]2C[C@](C)(N)[C@H](O)[C@H](C)O2)Oc2ccc(cc2Cl)[C@H]1O [VANCOMYCIN]	< 1 µg/mL	–	–	–	–	–	–	–	–
Oc1ccc(/C=C/c2cc(O)cc(O)c2)cc1 [RESVERATROL]	–	–	–	–	93.4%	–	130 µM	60.3%	–
COc1ccc(OC)c(-c2cnn(-c3ccccc3)n2)c1	128 µg/mL (≈ 455 µM)	128 µg/mL (≈ 455 µM)	256 µg/mL (≈ 910 µM)	128 µg/mL (≈ 455 µM)	94%	128 µg/mL (≈ 455 µM)	–	–	–
FC(F)(F)Oc1ccc(-n2nccn2)cc1	128 µg/mL (≈ 559 µM)	256 µg/mL (≈ 1120 µM)	256 µg/mL (≈ 1120 µM)	128 µg/mL (≈ 559 µM)	58.5%	256 µg/mL (≈ 1120 µM)	67 µM	24%	–
Nc1ccc(-c2cnn(-c3ccccc3-c3ccc(N)cc3)n2)cc1	128 µg/mL (≈ 391 µM)	128 µg/mL (≈ 391 µM)	64 µg/mL (≈ 195 µM)	128 µg/mL (≈ 391 µM)	44%	128 µg/mL (≈ 391 µM)	17.5 µM	2.5%	22%
c1ccc(-c2cnn(-c3ccccc3-c3ccccc3)n2)cc1	128 µg/mL (≈ 430 µM)	256 µg/mL (≈ 861 µM)	256 µg/mL (≈ 861 µM)	128 µg/mL (≈ 430 µM)	49%	128 µg/mL (≈ 430 µM)	52 µM	23%	–
